PMC7034854, “Inter-species variation in monovalent anion substrate selectivity and inhibitor sensitivity in the sodium iodide symporter (NIS)” (PLoS ONE, 2020)

Columns and labels:
[1] = biological target: T1, sodium iodide symporter (zNIS) (Danio rerio, UniProt A0AC58G7K6); test: […]- uptake inhibition in transduced HeLa cells; type: cell-based
T1 construct: gene slc5a5; N-terminally HA-tagged NIS (601 residues, NP_001082860.1) expressed in HeLa cells
T1 sequence (A0AC58G7K6 1-601): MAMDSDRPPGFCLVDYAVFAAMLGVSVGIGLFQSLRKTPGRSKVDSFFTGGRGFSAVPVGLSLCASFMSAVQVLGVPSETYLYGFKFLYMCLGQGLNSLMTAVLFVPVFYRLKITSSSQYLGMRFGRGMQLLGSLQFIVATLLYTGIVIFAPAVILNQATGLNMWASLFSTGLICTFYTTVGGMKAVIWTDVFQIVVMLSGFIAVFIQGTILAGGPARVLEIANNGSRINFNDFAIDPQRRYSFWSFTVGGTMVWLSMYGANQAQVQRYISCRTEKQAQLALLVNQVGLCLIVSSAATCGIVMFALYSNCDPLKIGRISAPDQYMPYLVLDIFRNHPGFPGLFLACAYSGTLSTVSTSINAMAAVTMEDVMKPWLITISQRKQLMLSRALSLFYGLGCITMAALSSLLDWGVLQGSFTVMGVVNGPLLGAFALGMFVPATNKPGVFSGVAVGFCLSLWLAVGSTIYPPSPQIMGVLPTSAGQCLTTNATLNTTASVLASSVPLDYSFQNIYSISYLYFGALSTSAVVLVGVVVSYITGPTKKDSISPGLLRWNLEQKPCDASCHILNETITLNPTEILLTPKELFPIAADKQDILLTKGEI

[2] = biological target: T2, sodium iodide symporter (wNIS) (Balaenoptera acutorostrata, UniProt A0A384B8D1); test: […]- uptake inhibition in transduced HeLa cells; type: cell-based
T2 construct: gene SLC5A5; N-terminally HA-tagged NIS (642 residues, XP_007195539.1) expressed in HeLa cells
T2 sequence (A0A384B8D1 1-642): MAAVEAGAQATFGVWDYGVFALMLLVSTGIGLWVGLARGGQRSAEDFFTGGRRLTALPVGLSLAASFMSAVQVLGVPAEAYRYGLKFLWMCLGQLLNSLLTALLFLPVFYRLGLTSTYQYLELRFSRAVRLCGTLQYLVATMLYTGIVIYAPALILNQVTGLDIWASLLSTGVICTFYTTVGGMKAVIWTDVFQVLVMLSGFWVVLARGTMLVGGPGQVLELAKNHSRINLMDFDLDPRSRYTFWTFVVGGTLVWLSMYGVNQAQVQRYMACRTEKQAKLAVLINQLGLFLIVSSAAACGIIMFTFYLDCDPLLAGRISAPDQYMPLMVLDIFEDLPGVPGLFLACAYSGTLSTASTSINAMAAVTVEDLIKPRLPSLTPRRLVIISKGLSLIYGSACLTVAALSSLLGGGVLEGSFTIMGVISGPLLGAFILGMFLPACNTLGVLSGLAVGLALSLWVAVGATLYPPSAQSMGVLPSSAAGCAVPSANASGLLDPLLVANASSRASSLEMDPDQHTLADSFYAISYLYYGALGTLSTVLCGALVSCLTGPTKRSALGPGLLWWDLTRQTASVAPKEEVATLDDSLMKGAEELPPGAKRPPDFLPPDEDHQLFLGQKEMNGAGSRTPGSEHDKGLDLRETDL

[3] = biological target: T3, sodium iodide symporter (hNIS) (Homo sapiens, UniProt Q92911); test: […]- uptake inhibition in transduced HeLa cells; type: cell-based
T3 construct: gene SLC5A5; N-terminally HA-tagged NIS (643 residues) expressed in HeLa cells
T3 sequence (Q92911 1-643): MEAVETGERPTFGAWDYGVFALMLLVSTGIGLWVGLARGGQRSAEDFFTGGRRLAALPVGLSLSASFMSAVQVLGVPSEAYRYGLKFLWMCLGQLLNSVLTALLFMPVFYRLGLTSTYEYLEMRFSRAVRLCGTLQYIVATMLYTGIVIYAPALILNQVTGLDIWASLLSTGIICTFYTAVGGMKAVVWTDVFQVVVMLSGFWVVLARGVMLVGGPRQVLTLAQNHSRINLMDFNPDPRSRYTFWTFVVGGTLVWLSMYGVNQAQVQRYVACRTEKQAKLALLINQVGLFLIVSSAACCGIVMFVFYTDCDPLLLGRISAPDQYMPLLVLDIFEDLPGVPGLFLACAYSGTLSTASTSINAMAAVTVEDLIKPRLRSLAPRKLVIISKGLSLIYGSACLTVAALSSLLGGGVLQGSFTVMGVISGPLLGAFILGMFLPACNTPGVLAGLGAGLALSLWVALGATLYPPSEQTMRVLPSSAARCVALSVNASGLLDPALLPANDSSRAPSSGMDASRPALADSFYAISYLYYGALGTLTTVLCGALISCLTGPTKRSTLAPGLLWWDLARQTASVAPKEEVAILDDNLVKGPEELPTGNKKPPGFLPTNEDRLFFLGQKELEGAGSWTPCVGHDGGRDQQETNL

[4] = substrate: I; test: iodide uptake kinetics (Km) in transduced HeLa cells; type: cell-based, Homo sapiens; details: Na+
[5] = substrate: I; test: as above; type: cell-based, Balaenoptera acutorostrata; details: Na+
[6] = substrate: I; test: as above; type: cell-based, Danio rerio; details: Na+
Description: iodide uptake kinetics (Km) in transduced HeLa cells on sodium iodide symporter (zNIS) | zNIS binds to iodide with the greatest affinity of the proteins examined in this study

`[O-][Cl+3]([O-])([O-])O` [perchlorate] showed an IC50 [1] of 81 nM, an IC50 [2] of 4600 nM and an IC50 [3] of 1570 nM.

B1: sodium iodide symporter (hNIS) (Homo sapiens) (protein)
chain: MEAVETGERPTFGAWDYGVFALMLLVSTGIGLWVGLARGGQRSAEDFFTGGRRLAALPVGLSLSASFMSAVQVLGVPSEAYRYGLKFLWMCLGQLLNSVLTALLFMPVFYRLGLTSTYEYLEMRFSRAVRLCGTLQYIVATMLYTGIVIYAPALILNQVTGLDIWASLLSTGIICTFYTAVGGMKAVVWTDVFQVVVMLSGFWVVLARGVMLVGGPRQVLTLAQNHSRINLMDFNPDPRSRYTFWTFVVGGTLVWLSMYGVNQAQVQRYVACRTEKQAKLALLINQVGLFLIVSSAACCGIVMFVFYTDCDPLLLGRISAPDQYMPLLVLDIFEDLPGVPGLFLACAYSGTLSTASTSINAMAAVTVEDLIKPRLRSLAPRKLVIISKGLSLIYGSACLTVAALSSLLGGGVLQGSFTVMGVISGPLLGAFILGMFLPACNTPGVLAGLGAGLALSLWVALGATLYPPSEQTMRVLPSSAARCVALSVNASGLLDPALLPANDSSRAPSSGMDASRPALADSFYAISYLYYGALGTLTTVLCGALISCLTGPTKRSTLAPGLLWWDLARQTASVAPKEEVAILDDNLVKGPEELPTGNKKPPGFLPTNEDRLFFLGQKELEGAGSWTPCVGHDGGRDQQETNL
notes: N-terminally HA-tagged NIS (643 residues) expressed in HeLa cells
With B1 the Km [4] was 12.01 µM.

B2: sodium iodide symporter (wNIS) (Balaenoptera acutorostrata) (protein)
chain: MAAVEAGAQATFGVWDYGVFALMLLVSTGIGLWVGLARGGQRSAEDFFTGGRRLTALPVGLSLAASFMSAVQVLGVPAEAYRYGLKFLWMCLGQLLNSLLTALLFLPVFYRLGLTSTYQYLELRFSRAVRLCGTLQYLVATMLYTGIVIYAPALILNQVTGLDIWASLLSTGVICTFYTTVGGMKAVIWTDVFQVLVMLSGFWVVLARGTMLVGGPGQVLELAKNHSRINLMDFDLDPRSRYTFWTFVVGGTLVWLSMYGVNQAQVQRYMACRTEKQAKLAVLINQLGLFLIVSSAAACGIIMFTFYLDCDPLLAGRISAPDQYMPLMVLDIFEDLPGVPGLFLACAYSGTLSTASTSINAMAAVTVEDLIKPRLPSLTPRRLVIISKGLSLIYGSACLTVAALSSLLGGGVLEGSFTIMGVISGPLLGAFILGMFLPACNTLGVLSGLAVGLALSLWVAVGATLYPPSAQSMGVLPSSAAGCAVPSANASGLLDPLLVANASSRASSLEMDPDQHTLADSFYAISYLYYGALGTLSTVLCGALVSCLTGPTKRSALGPGLLWWDLTRQTASVAPKEEVATLDDSLMKGAEELPPGAKRPPDFLPPDEDHQLFLGQKEMNGAGSRTPGSEHDKGLDLRETDL
notes: N-terminally HA-tagged NIS (642 residues, XP_007195539.1) expressed in HeLa cells
B2 showed a Km [5] of 30.04 µM.

B3: sodium iodide symporter (zNIS) (Danio rerio) (protein)
chain: MAMDSDRPPGFCLVDYAVFAAMLGVSVGIGLFQSLRKTPGRSKVDSFFTGGRGFSAVPVGLSLCASFMSAVQVLGVPSETYLYGFKFLYMCLGQGLNSLMTAVLFVPVFYRLKITSSSQYLGMRFGRGMQLLGSLQFIVATLLYTGIVIFAPAVILNQATGLNMWASLFSTGLICTFYTTVGGMKAVIWTDVFQIVVMLSGFIAVFIQGTILAGGPARVLEIANNGSRINFNDFAIDPQRRYSFWSFTVGGTMVWLSMYGANQAQVQRYISCRTEKQAQLALLVNQVGLCLIVSSAATCGIVMFALYSNCDPLKIGRISAPDQYMPYLVLDIFRNHPGFPGLFLACAYSGTLSTVSTSINAMAAVTMEDVMKPWLITISQRKQLMLSRALSLFYGLGCITMAALSSLLDWGVLQGSFTVMGVVNGPLLGAFALGMFVPATNKPGVFSGVAVGFCLSLWLAVGSTIYPPSPQIMGVLPTSAGQCLTTNATLNTTASVLASSVPLDYSFQNIYSISYLYFGALSTSAVVLVGVVVSYITGPTKKDSISPGLLRWNLEQKPCDASCHILNETITLNPTEILLTPKELFPIAADKQDILLTKGEI
notes: N-terminally HA-tagged NIS (601 residues, NP_001082860.1) expressed in HeLa cells
With B3 the Km [6] was 3.688 µM.
